Values joined by “and” are separate entries in the source; they are usually repeats but may differ in a detail not shown here. Equal values may be shown once. Inconclusive results and toxic doses are left out. No stated cut-off is given here; in the data, active means T/C of 150% or more; inactive means T/C below 125%.
System: L1210 leukemia ip in BDF1 mice, survival T/C
Test: NCI In Vivo Anticancer Drug Screen. Data for tumor model L1210 Leukemia (intraperitoneal) in B6D2F1 (BDF1) mice
Details: endpoint: mean survival time, higher = longer survival
Summary of the method: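 Survival endpoint. Drug-treated group vs vehicle group, expressed as T divided by C. Tumor passaged by transplantation.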

[1] = dose: 100.0 mg/kg/injection, schedule: Q04DX003 (ip), vehicle: Klucel (hydroxypropylcellulose) (HPC)
[2] = dose: 200.0 mg/kg/injection, schedule: Q04DX003 (ip), vehicle: Klucel (hydroxypropylcellulose) (HPC)
[3] = dose: 400.0 mg/kg/injection, schedule: Q04DX003 (ip), vehicle: Klucel (hydroxypropylcellulose) (HPC)
[4] = dose: 100.0 mg/kg/injection, schedule: Q01DX001 (ip), vehicle: carboxymethylcellulose (CMC)
[5] = dose: 200.0 mg/kg/injection, schedule: Q01DX001 (ip), vehicle: carboxymethylcellulose (CMC)
[6] = dose: 400.0 mg/kg/injection, schedule: Q01DX001 (ip), vehicle: carboxymethylcellulose (CMC)
[7] = dose: 100.0 mg/kg/injection, schedule: Q04DX003 (ip), vehicle: saline with Tween-80
[8] = dose: 50.0 mg/kg/injection, schedule: Q01DX009 (ip), vehicle: Klucel (hydroxypropylcellulose) (HPC)
[9] = dose: 100.0 mg/kg/injection, schedule: Q01DX009 (ip), vehicle: Klucel (hydroxypropylcellulose) (HPC)
[10] = dose: 100.0 mg/kg/injection, schedule: Q04DX002 (ip), vehicle: Klucel (hydroxypropylcellulose) (HPC)
[11] = dose: 200.0 mg/kg/injection, schedule: Q04DX002 (ip), vehicle: Klucel (hydroxypropylcellulose) (HPC)
[12] = dose: 400.0 mg/kg/injection, schedule: Q04DX002 (ip), vehicle: Klucel (hydroxypropylcellulose) (HPC)
[13] = dose: 12.5 mg/kg/injection, schedule: Q04DX002 (ip), vehicle: Klucel (hydroxypropylcellulose) (HPC)
[14] = dose: 25.0 mg/kg/injection, schedule: Q04DX002 (ip), vehicle: Klucel (hydroxypropylcellulose) (HPC)
[15] = dose: 100.0 mg/kg/injection, schedule: Q01DX001 (ip), vehicle: saline
[16] = dose: 200.0 mg/kg/injection, schedule: Q01DX001 (ip), vehicle: saline
[17] = dose: 400.0 mg/kg/injection, schedule: Q01DX001 (ip), vehicle: saline
[18] = dose: 200.0 mg/kg/injection, schedule: Q04DX003 (ip), vehicle: saline with Tween-80

Measured: T/C

OC1CCC2NCCCC2C1 (stereo unspecified)
inactive: dose: 75.0 mg/kg/injection, schedule: Q01DX001 (ip), vehicle: carboxymethylcellulose (CMC) 101 % of control | dose: 150.0 mg/kg/injection, schedule: Q01DX001 (ip), vehicle: carboxymethylcellulose (CMC) 103 % of control

CCCCCCCCCCCCCCCC(=O)N(CC#N)CC#N
inactive: [1] 91 % of control | [2] 92 % of control | [3] 89 % of control

COc1ccc2c(OC)c3ccoc3nc2c1OC
inactive: dose: 25.0 mg/kg/injection, schedule: Q01DX Z (ip), vehicle: carboxymethylcellulose (CMC) 97 % of control | dose: 50.0 mg/kg/injection, schedule: Q01DX Z (ip), vehicle: carboxymethylcellulose (CMC) 100 % of control

O=C(CCN(Cc1ccccc1)Cc1ccccc1)c1csc2ccccc12
inactive: [4] 96 % of control | [5] 89 % of control | [6] 94 % of control

O=S(=O)(CS(=O)(=O)Oc1ccccc1)Oc1ccccc1
inactive: [4] 93 % of control | [5] 102 % of control | [6] 93 % of control

CCOC(=O)c1ccc(Cl)cc1
inactive: dose: 100.0 mg/kg/injection, schedule: Q01DX009 (ip), vehicle: saline with Tween-80 88 % of control | [1] 97 % of control | [2] 102 % of control | [3] 102 % of control

O=[N+]([O-])c1ccc(OC(=S)Cl)cc1
inactive: dose: 6.25 mg/kg/injection, schedule: Q04DX002 (ip), vehicle: saline with Tween-80 99 % of control | dose: 12.5 mg/kg/injection, schedule: Q04DX002 (ip), vehicle: saline with Tween-80 101 % of control | dose: 25.0 mg/kg/injection, schedule: Q04DX002 (ip), vehicle: saline with Tween-80 96 % of control | [7] 103 % of control

CCCCCCCCCCCCCCC(F)C(=O)O (stereo unspecified)
inactive: [8] 96 % of control | [9] 101 % of control | [1] 92 % of control | [2] 91 % of control

C/C(=C\CC1(C)C(=O)CCC2(C)C1CCCC21OCCO1)Sc1ccc(Cl)cc1 (stereo unspecified)
inactive: [10] 89 % of control | [11] 95 % of control | [12] 110 % of control

COc1cc(O)c2c(c1)Cc1cc(C)cc(O)c1C2=O
inactive: [13] 93 % of control | [14] 93 % of control

NC(=O)C(c1ccccc1)C1(O)CCCCC1 (stereo unspecified)
inactive: dose: 50.0 mg/kg/injection, schedule: Q01DX001 (ip), vehicle: saline 102 % of control | [15] 104 % of control | [16] 96 % of control | [17] 91 % of control

CCS(=O)(=O)c1ccc(C(=O)N=[N+]=[N-])cc1
inactive: [4] 92 % of control | [5] 97 % of control | [6] 105 % of control

O=C1/C(=C\c2ccc([N+](=O)[O-])cc2)N2CCC1CC2
inactive: [10] 102 % of control | [11] 94 % of control | [12] 105 % of control

COc1nc(SC)nc2[nH]ccc12
inactive: dose: 75.0 mg/kg/injection, schedule: Q01DX001 (ip), vehicle: other 103 % of control | dose: 150.0 mg/kg/injection, schedule: Q01DX001 (ip), vehicle: other 100 % of control | dose: 300.0 mg/kg/injection, schedule: Q01DX001 (ip), vehicle: other 97 % of control

CC(CC(C#N)(c1ccccc1)c1ccccc1)OS(C)(=O)=O (stereo unspecified)
inactive: [4] 94 % of control | [5] 94 % of control | [6] 94 % of control

CCOC(=O)c1cnc(=O)n(Cc2ccccc2)c1N
inactive: dose: 100.0 mg/kg/injection, schedule: Q04DX002 (ip), vehicle: other 98 % of control | dose: 200.0 mg/kg/injection, schedule: Q04DX002 (ip), vehicle: other 95 % of control | dose: 400.0 mg/kg/injection, schedule: Q04DX002 (ip), vehicle: other 98 % of control

CCCCCCCCC(C)NCCO (stereo unspecified)
inactive: dose: 9.5 mg/kg/injection, schedule: Q01DX001 (ip), vehicle: saline 96 % of control | dose: 19.0 mg/kg/injection, schedule: Q01DX001 (ip), vehicle: saline 93 % of control | dose: 38.0 mg/kg/injection, schedule: Q01DX001 (ip), vehicle: saline 90 % of control

COC1C(O)C(CO)OC1n1ccc(N)nc1=O (stereo unspecified)
inactive: [15] 95 % of control | [16] 95 % of control | [17] 98 % of control

Cc1c(Cl)ccc2c(C(=O)O)cc(-c3ccc(Cl)cc3)nc12
inactive: [4] 100 % of control | [5] 94 % of control | [6] 92 % of control

COC(=O)C(C)(OC)OC
inactive: dose: 100.0 mg/kg/injection, schedule: Q01DX009 (ip), vehicle: saline 104 % of control | [1] 96 % of control | dose: 200.0 mg/kg/injection, schedule: Q01DX009 (ip), vehicle: saline 112 % of control | [2] 100 % of control | dose: 400.0 mg/kg/injection, schedule: Q01DX009 (ip), vehicle: saline 105 % of control | [3] 96 % of control

CCCCOC(=O)CSSCC(=O)OCCCC
inactive: [7] 106 % of control | [18] 109 % of control

O=C1C(Cl)=C(Nc2ccccc2Cl)C(=O)C(Cl)=C1Nc1ccccc1Cl
inactive: dose: 50.0 mg/kg/injection, schedule: Q01DX001 (ip), vehicle: carboxymethylcellulose (CMC) 101 % of control | [4] 101 % of control | [7] 95 % of control | [5] 90 % of control | [18] 98 % of control | [6] 95 % of control | dose: 400.0 mg/kg/injection, schedule: Q04DX003 (ip), vehicle: saline with Tween-80 98 % of control

O=C(O)/C=C/c1cnccn1
inactive: dose: 100.0 mg/kg/injection, schedule: Q04DX003 (ip), vehicle: carboxymethylcellulose (CMC) 103 % of control | dose: 200.0 mg/kg/injection, schedule: Q04DX003 (ip), vehicle: carboxymethylcellulose (CMC) 93 % of control | dose: 400.0 mg/kg/injection, schedule: Q04DX003 (ip), vehicle: carboxymethylcellulose (CMC) 97 % of control

Cc1cccc(NC(=O)Nc2cccc3ccccc23)c1C
inactive: dose: 25.0 mg/kg/injection, schedule: Q01DX009 (ip), vehicle: Klucel (hydroxypropylcellulose) (HPC) 92 % of control | dose: 25.0 mg/kg/injection, schedule: Q04DX003 (ip), vehicle: Klucel (hydroxypropylcellulose) (HPC) 94 % of control | [8] 96 % of control | dose: 50.0 mg/kg/injection, schedule: Q04DX003 (ip), vehicle: Klucel (hydroxypropylcellulose) (HPC) 89 % of control | [9] 92 % of control | [1] 91 % of control | [2] 93 % of control | [3] 91 % of control

CCCCN(CCCC)CCN(CCCC)CCN(CCCC)CCCC
inactive: dose: 25.0 mg/kg/injection, schedule: Q04DX003 (ip), vehicle: saline 103 % of control | dose: 50.0 mg/kg/injection, schedule: Q04DX003 (ip), vehicle: saline 98 % of control | dose: 100.0 mg/kg/injection, schedule: Q04DX003 (ip), vehicle: saline 98 % of control and 89 % of control

NC(N)=N/N=C/c1cc(Cl)ccc1O
inactive: [13] 93 % of control | [14] 93 % of control and 110 % of control | [10] 106 % of control

CC(=O)CC(=O)Nc1cccc([N+](=O)[O-])c1
inactive: [9] 98 % of control | [1] 97 % of control | [2] 91 % of control | [3] 93 % of control

Oc1cc(O)c(O)cc1O
inactive: dose: 6.25 mg/kg/injection, schedule: Q01DX009 (ip), vehicle: saline 102 % of control | dose: 6.25 mg/kg/injection, schedule: Q04DX003 (ip), vehicle: saline with Tween-80 93 % of control | dose: 12.5 mg/kg/injection, schedule: Q01DX009 (ip), vehicle: saline 102 % of control | dose: 12.5 mg/kg/injection, schedule: Q04DX003 (ip), vehicle: saline with Tween-80 97 % of control | dose: 25.0 mg/kg/injection, schedule: Q01DX009 (ip), vehicle: saline 110 % of control | dose: 25.0 mg/kg/injection, schedule: Q04DX003 (ip), vehicle: saline with Tween-80 98 % of control

O=C(O)c1cccn1-c1ccccc1
inactive: dose: 100.0 mg/kg/injection, schedule: Q01DX001 (ip), vehicle: saline with Tween-80 102 % of control | dose: 100.0 mg/kg/injection, schedule: Q04DX003 (ip), vehicle: other 96 % of control | dose: 200.0 mg/kg/injection, schedule: Q01DX001 (ip), vehicle: saline with Tween-80 103 % of control | dose: 200.0 mg/kg/injection, schedule: Q04DX003 (ip), vehicle: other 101 % of control | dose: 400.0 mg/kg/injection, schedule: Q01DX001 (ip), vehicle: saline with Tween-80 96 % of control | dose: 400.0 mg/kg/injection, schedule: Q04DX003 (ip), vehicle: other 89 % of control

Source: PubChem BioAssay AID248 (DTP/NCI, 2004)
